Data as given in ChEMBL document CHEMBL1201862, “PubChem BioAssay data set” (2004).
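These data come from cells grown in 96-well plates and exposed to compound for 48 hours at five concentrations. At the GI50, growth is halved.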 The source made the active and inactive calls. Cut-off read from the data, not from the text of the source: active = GI50 up to about 1.1 µM and inactive = higher.

Legend:
Assay in all cases: inhibition of tumour cell growth, NCI panel, 48 h
NCI-H460 = tested on: NCI-H460
OVCAR-3 = tested on: OVCAR-3
OVCAR-4 = tested on: OVCAR-4
ACHN = tested on: ACHN
SNB-19 = tested on: SNB-19
A498 = tested on: A498
K562 = tested on: K562
EKVX = tested on: EKVX
HCT-116 = tested on: HCT-116
OVCAR-5 = tested on: OVCAR-5
MOLT-4 = tested on: MOLT-4
M14 = tested on: M14
NCI-H23 = tested on: NCI-H23
UACC-257 = tested on: UACC-257
COLO 205 = tested on: COLO 205
SK-MEL-28 = tested on: SK-MEL-28
NCI/ADR-RES = tested on: NCI/ADR-RES
SK-MEL-5 = tested on: SK-MEL-5
DMS-114 = tested on: DMS-114
SNB-78 = tested on: SNB-78

SMILES | GI50 (NCI-H460) | GI50 (OVCAR-3) | GI50 (OVCAR-4) | GI50 (ACHN) | GI50 (SNB-19) | GI50 (A498) | GI50 (K562) | GI50 (EKVX) | GI50 (HCT-116) | GI50 (OVCAR-5) | GI50 (MOLT-4) | GI50 (M14) | GI50 (NCI-H23) | GI50 (UACC-257) | GI50 (COLO 205) | GI50 (SK-MEL-28) | GI50 (NCI/ADR-RES) | GI50 (SK-MEL-5) | GI50 (DMS-114) | GI50 (SNB-78)
CCCc1c(-c2ccccc2)[nH]c2ccccc2c1=O | 29.9 µM (inactive) | 31.5 µM (inactive) | > 100 µM (inactive) | 34.8 µM (inactive) | 65.2 µM (inactive) | 29 µM (inactive) | 20.8 µM (inactive) | 37.6 µM (inactive) | 24.3 µM (inactive) | 45 µM (inactive) | > 100 µM (inactive) | 36.2 µM (inactive) | > 100 µM (inactive) | > 100 µM (inactive) | > 100 µM (inactive) | 33.7 µM (inactive) | – | – | – | –
Cc1cc(C)c(NC(=O)/C=C/c2ccccc2)c(C)c1 | > 100 µM (inactive) | > 100 µM (inactive) | 94.6 µM (inactive) | 80.2 µM (inactive) | 61.9 µM (inactive) | – | 32.6 µM (inactive) | > 100 µM (inactive) | – | > 100 µM (inactive) | 7.64 µM (inactive) | > 100 µM (inactive) | > 100 µM (inactive) | > 100 µM (inactive) | – | > 100 µM (inactive) | 29.3 µM (inactive) | – | – | –
COc1ccc(/C=C2/C(=O)N(C(=O)c3ccccc3O)N=C2C)cc1 | 0.262 µM (active) | 0.338 µM (active) | 0.655 µM (active) | 0.0418 µM (active) | 0.0484 µM (active) | 0.0202 µM (active) | 0.0492 µM (active) | 0.608 µM (active) | 0.091 µM (active) | 11.2 µM (inactive) | 0.244 µM (active) | 16.4 µM (inactive) | 0.114 µM (active) | 0.442 µM (active) | 18.2 µM (inactive) | 9.4 µM (inactive) | 0.984 µM (active) | 0.218 µM (active) | 0.117 µM (active) | 0.033 µM (active)
COc1cc2c(cc1OC)C1Cc3cc(OC)c(OC)cc3C(C2)O1 | > 100 µM (inactive) | > 100 µM (inactive) | > 100 µM (inactive) | > 100 µM (inactive) | > 100 µM (inactive) | – | 46.7 µM (inactive) | > 100 µM (inactive) | > 100 µM (inactive) | > 100 µM (inactive) | 49.1 µM (inactive) | > 100 µM (inactive) | > 100 µM (inactive) | > 100 µM (inactive) | > 100 µM (inactive) | > 100 µM (inactive) | > 100 µM (inactive) | – | – | –
CC(C)OP(=O)(OC(C)C)c1ncn(-c2ccc([N+](=O)[O-])cc2)n1 | > 100 µM (inactive) | > 100 µM (inactive) | > 100 µM (inactive) | > 100 µM (inactive) | > 100 µM (inactive) | > 100 µM (inactive) | > 100 µM (inactive) | > 100 µM (inactive) | > 100 µM (inactive) | > 100 µM (inactive) | > 100 µM (inactive) | > 100 µM (inactive) | > 100 µM (inactive) | > 100 µM (inactive) | > 100 µM (inactive) | > 100 µM (inactive) | – | > 100 µM (inactive) | > 100 µM (inactive) | –
CC(=O)Oc1ccc(C2COc3cc(OC(C)=O)c(OC(C)=O)cc3C2)cc1 (configuration not stated) | 17.9 µM (inactive) | 13.7 µM (inactive) | 14.4 µM (inactive) | – | 32.2 µM (inactive) | 9.04 µM (inactive) | 16.3 µM (inactive) | 17.3 µM (inactive) | 17.4 µM (inactive) | 56.9 µM (inactive) | 18.3 µM (inactive) | – | 16 µM (inactive) | 17.7 µM (inactive) | 17.9 µM (inactive) | 16.3 µM (inactive) | 20.8 µM (inactive) | 2.95 µM (inactive) | 4.44 µM (inactive) | 24.3 µM (inactive)
N#CCCN(c1ccc(/C=N/c2cccc([N+](=O)[O-])c2)cc1)S(=O)(=O)c1ccccc1 | – | > 100 µM (inactive) | > 100 µM (inactive) | – | > 100 µM (inactive) | > 10 µM (inactive) | > 100 µM (inactive) | > 100 µM (inactive) | > 100 µM (inactive) | – | > 100 µM (inactive) | > 100 µM (inactive) | > 100 µM (inactive) | > 100 µM (inactive) | > 100 µM (inactive) | > 100 µM (inactive) | – | – | > 100 µM (inactive) | > 100 µM (inactive)
